Tested on: perceived sweetness intensity
Experiment: Strawberry consumer panel; initial multiple regression of volatiles against perceived sweetness intensity independent of glucose, fructose or sucrose (Table 5)
Assay type: in vivo, human
Conditions: for relation to sweetness intensity independent of sugars: initial step-wise multiple regression; for FRUCTOSE t RATIO / GLUCOSE t RATIO / SUCROSE t RATIO: standard least squares; for FRUCTOSE t RATIO: sweetness intensity independent of fructose; for GLUCOSE t RATIO: sweetness intensity independent of glucose; for SUCROSE t RATIO: sweetness intensity independent of sucrose
Procedure: Step-wise multiple regressions of all volatile compounds against perceived intensity of sweetness is performed independent of either glucose, fructose, or sucrose concentration, separately (Table 5).
At least 100 grams or seven berries of each sample were removed from 4° C. dark overnight storage prior to volatile collection. Samples were homogenized in a blender prior to splitting into three 15 gram replicates for immediate capturing of volatile emission and remainder of sample frozen in N2 (I) and stored at −80° C. for later sugar and acid quantification.
Oven temperatures programmed from 40° C. (0.5 min hold) at 5° C. min^−1 to 250° C. (4 min hold). Signals captured with a flame ionization detector (FID) at 280° C. Peaks from FID signal were integrated manually with Chemstation B.04.01 software (Agilent Technologies, Santa Clara, Calif.). Volatile emission (ng gFW^−1 h^−1) calculated based on individual peak area relative to sample elution standard peak area.
All consumer panels were approved by the University of Florida Institutional Review Board. […] Ages of panelist ranged from 18 to 71, with a median age of 24. Panelists self-classified themselves as 98 White or Caucasian, 11 Black or African-American, 1 Native American, Alaska Native or Aleutian, 41 Asian/Pacific Islander, and 15 Other. […] Fresh, fully-ripe strawberry fruit was removed from overnight 4° C. dark storage and allowed to warm to room temperature prior to sensory analysis. Each panelist was given one to two whole strawberries for evaluation, depending on cultivar availability. Panelist took a bite of each sample, chewed, and swallowed it. Ratings for overall liking and liking for texture were scaled on hedonic general labeled magnitude scale (gLMS) in the context of all pleasure/displeasure experiences. […] Scales were employed to mediate valid comparisons across subjects and sessions.
For the first analysis, individual volatile compound concentrations were regressed using the “enter” method in SPSS Statistics (IBM Corp, Armonk, N.Y., USA).

## C=CC(=O)CC [1-penten-3-one]
  relation to sweetness intensity independent of sugars: enhance sweetness intensity

## CCCCCC=O [66-25-1]
  FRUCTOSE t RATIO: 1.229
  GLUCOSE t RATIO: 1.178
  SUCROSE t RATIO: 0.21

## CCCCCO [71-41-0]
  FRUCTOSE t RATIO: 0.448
  GLUCOSE t RATIO: 0.296
  SUCROSE t RATIO: 1.938

## CCCCC(=O)C(C)=O [96-04-8]
  FRUCTOSE t RATIO: 0.142
  GLUCOSE t RATIO: 0.002
  SUCROSE t RATIO: −0.646

## CCC(=O)CC [96-22-0]
  FRUCTOSE t RATIO: 1.82
  GLUCOSE t RATIO: 1.576
  SUCROSE t RATIO: 0.912

## CCCCC(CC)COC(C)=O (stereo not drawn) [103-09-3]
  FRUCTOSE t RATIO: 0.172
  GLUCOSE t RATIO: 0.21
  SUCROSE t RATIO: −1.053

## CCCCC(CC)CO (stereo not drawn) [104-76-7]
  FRUCTOSE t RATIO: 1.189
  GLUCOSE t RATIO: 0.982
  SUCROSE t RATIO: 2.046

## CCOC(=O)CC [105-37-3]
  FRUCTOSE t RATIO: −0.623
  GLUCOSE t RATIO: −0.674
  SUCROSE t RATIO: 1.964

## CCCOC(=O)CCC [105-66-8]
  FRUCTOSE t RATIO: 0.88
  GLUCOSE t RATIO: 0.638
  SUCROSE t RATIO: 2.421

## CCCCCCCC(=O)OCC [106-32-1, ethyl octanoate]
  relation to sweetness intensity independent of sugars: negatively related to sweetness

## CC(=O)CC(C)C [108-10-1, 4-Methyl-2-pentanone]
  relation to sweetness intensity independent of sugars: negatively related to sweetness

## CCCCOC(=O)CC(C)C [109-19-3]
  FRUCTOSE t RATIO: 2.005
  GLUCOSE t RATIO: 1.954
  SUCROSE t RATIO: 1.662

## CCCCOC(=O)CCC [109-21-7]
  FRUCTOSE t RATIO: 2.181
  GLUCOSE t RATIO: 1.961
  SUCROSE t RATIO: 1.65

## CCCOC(C)=O [109-60-4]
  FRUCTOSE t RATIO: −0.491
  GLUCOSE t RATIO: −0.454
  SUCROSE t RATIO: −0.224

## CCCCCCCCCC(=O)OCC [110-38-3]
  FRUCTOSE t RATIO: 0.281
  GLUCOSE t RATIO: 0.055
  SUCROSE t RATIO: 2.621

## CCCCCCCCOC(=O)CCC [110-39-4]
  FRUCTOSE t RATIO: 0.96
  GLUCOSE t RATIO: 0.814
  SUCROSE t RATIO: 2.645

## CCCCC=O [110-62-3]
  FRUCTOSE t RATIO: −0.572
  GLUCOSE t RATIO: −0.568
  SUCROSE t RATIO: 0.997

## CCCCCCC=O [111-71-7]
  FRUCTOSE t RATIO: 2.599
  GLUCOSE t RATIO: 2.283
  SUCROSE t RATIO: 1.342

## CCCCCCCCOC(C)=O [112-14-1]
  FRUCTOSE t RATIO: 0.413
  GLUCOSE t RATIO: 0.284
  SUCROSE t RATIO: 2.292

## CCCCCC(=O)OCC [123-66-0]
  FRUCTOSE t RATIO: 0.066
  GLUCOSE t RATIO: −0.001
  SUCROSE t RATIO: 1.064

## CC(=O)OCCC(C)C [123-92-2]
  FRUCTOSE t RATIO: −0.725
  GLUCOSE t RATIO: −0.771
  SUCROSE t RATIO: 0.108

## CCCCCCCC=O [124-13-0]
  FRUCTOSE t RATIO: 0.871
  GLUCOSE t RATIO: 0.685
  SUCROSE t RATIO: 0.169

## CCCCCCCCC=O [124-19-6]
  FRUCTOSE t RATIO: 3.696
  GLUCOSE t RATIO: 3.402
  SUCROSE t RATIO: 0.226

## Cc1cc(C(C)(C)C)c(O)c(C(C)(C)C)c1 [128-37-0]
  FRUCTOSE t RATIO: −0.856
  GLUCOSE t RATIO: −1.17
  SUCROSE t RATIO: 0.482

## COC(=O)c1ccccc1N [134-20-3]
  FRUCTOSE t RATIO: −0.009
  GLUCOSE t RATIO: 0.2
  SUCROSE t RATIO: 1.386

## CC(=O)OCc1ccccc1 [140-11-4]
  FRUCTOSE t RATIO: −0.361
  GLUCOSE t RATIO: −0.513
  SUCROSE t RATIO: −1.357

## CCCCC(=O)OCC [539-82-2]
  FRUCTOSE t RATIO: −0.48
  GLUCOSE t RATIO: −0.802
  SUCROSE t RATIO: 2.273

## CCCCCOC(=O)CCC [540-18-1, pentyl butyrate]
  relation to sweetness intensity independent of sugars: enhance sweetness intensity

## CC1(C)C2CC=C(C=O)C1C2 (stereo not drawn) [564-94-3]
  FRUCTOSE t RATIO: 2.588
  GLUCOSE t RATIO: 2.455
  SUCROSE t RATIO: −1.322

## CCCC(=O)CC [589-38-8]
  FRUCTOSE t RATIO: −0.217
  GLUCOSE t RATIO: −0.427
  SUCROSE t RATIO: 0.592

## CCCCC(C)=O [591-78-6]
  FRUCTOSE t RATIO: 2.807
  GLUCOSE t RATIO: 2.788
  SUCROSE t RATIO: 0.767

## C=CC(O)CC (stereo not drawn) [616-25-1]
  FRUCTOSE t RATIO: 1.773
  GLUCOSE t RATIO: 1.628
  SUCROSE t RATIO: 0.795

## C/C=C/C(=O)OC [623-43-8]
  FRUCTOSE t RATIO: 0.248
  GLUCOSE t RATIO: 0.54
  SUCROSE t RATIO: −1.396

## CCCCC(=O)OC [624-24-8]
  FRUCTOSE t RATIO: −0.406
  GLUCOSE t RATIO: −0.416
  SUCROSE t RATIO: 0.662

## CCC(C)COC(C)=O (stereo not drawn) [624-41-9]
  FRUCTOSE t RATIO: −0.433
  GLUCOSE t RATIO: −0.494
  SUCROSE t RATIO: −1.323

## CCCCCOC(C)=O [628-63-7]
  FRUCTOSE t RATIO: 0.882
  GLUCOSE t RATIO: 0.749
  SUCROSE t RATIO: 0.427

## CCCCCCC1CCC(=O)O1 (stereo not drawn) [706-14-9]
  FRUCTOSE t RATIO: 1.247
  GLUCOSE t RATIO: 0.879
  SUCROSE t RATIO: 1.65

## CCC/C=C/CO [928-95-0]
  FRUCTOSE t RATIO: −1.842
  GLUCOSE t RATIO: −1.521
  SUCROSE t RATIO: −0.516

## CSC(C)=O [1534-08-3]
  FRUCTOSE t RATIO: 0.488
  GLUCOSE t RATIO: 0.429
  SUCROSE t RATIO: 1.035

## CC/C=C\C=O [1576-86-9]
  FRUCTOSE t RATIO: 4.16
  GLUCOSE t RATIO: 3.915
  SUCROSE t RATIO: 0.935

## CC/C=C/C=O [1576-87-0]
  FRUCTOSE t RATIO: 4.566
  GLUCOSE t RATIO: 4.301
  SUCROSE t RATIO: 1.024

## CCCCCCCCC1CCC(=O)O1 (stereo not drawn) [2305-05-7, 5-octyldihydro-2(3H)-furanone]
  relation to sweetness intensity independent of sugars: enhance sweetness intensity

## CCCCCC(=O)OC(C)C [2311-46-8]
  FRUCTOSE t RATIO: 0.238
  GLUCOSE t RATIO: −0.058
  SUCROSE t RATIO: 2.211

## CCCC(=O)SC [2432-51-1]
  FRUCTOSE t RATIO: −0.956
  GLUCOSE t RATIO: −1.092
  SUCROSE t RATIO: 2.033

## CCC/C=C/COC(C)=O [2497-18-9]
  FRUCTOSE t RATIO: −0.313
  GLUCOSE t RATIO: −0.331
  SUCROSE t RATIO: −0.056

## CCCCC/C=C/C=O [2548-87-0]
  FRUCTOSE t RATIO: 1.76
  GLUCOSE t RATIO: 1.509
  SUCROSE t RATIO: 0.067

## CCCCCCOC(=O)CCC [2639-63-6, hexyl butyrate]
  relation to sweetness intensity independent of sugars: enhance sweetness intensity

## CCCCCCC/C=C/C=O [3913-81-3]
  FRUCTOSE t RATIO: 3.694
  GLUCOSE t RATIO: 3.494
  SUCROSE t RATIO: 1.411

## CCCCCCCCOC(=O)CCCCC [4887-30-3]
  FRUCTOSE t RATIO: 0.392
  GLUCOSE t RATIO: 0.254
  SUCROSE t RATIO: 2.71

## CCCCCCCCCCOC(=O)CCC [5454-09-1]
  FRUCTOSE t RATIO: 1.804
  GLUCOSE t RATIO: 1.579
  SUCROSE t RATIO: 2.085

## CCCCCC(CC)CC [5881-17-4]
  FRUCTOSE t RATIO: 2.894
  GLUCOSE t RATIO: 2.662
  SUCROSE t RATIO: 0.608

Reference: patent publication US11744273B2, “Sweetness enhancing volatile compositions and methods of increasing perceived sweetness of a comestible” (University of Florida Research Foundation, Inc., priority 2016, dated 2023)
